In ChEMBL document CHEMBL4800722, “Data for DCP probe BI 605906” (2021):

Legend:
[1] = molecular target: Mitogen-activated protein kinase 9 (Homo sapiens) (UniProt P45984); conditions: Compound concentration 1.0 uM
[2] = molecular target: Serotonin 3 (5-HT3) receptor (Homo sapiens) (UniProt P46098+A5X5Y0+O95264+Q70Z44+Q8WXA8); assay: 5HT3/HU Eurofins SafetyScreen44 (BI); type: protein-complex assay; conditions: Compound concentration 10.0 uM
[3] = molecular target: Ephrin type-A receptor 2 (Homo sapiens) (UniProt P29317)
[4] = molecular target: CDC7/DBF4 (Cell division cycle 7-related protein kinase/Activator of S phase kinase) (Homo sapiens) (UniProt Q9UBU7+O00311); assay: CDC7/DBF4 Invitrogen Lab (UK) kinase screen (BI); type: protein-complex assay; conditions: Compound concentration 1.0 uM
[5] = molecular target: Mitogen-activated protein kinase 14 (Homo sapiens) (UniProt Q16539); assay: SAPK2AP38 DUNDEE kinase screen (BI); conditions: Compound concentration 10.0 uM
[6] = molecular target: 5-hydroxytryptamine receptor 4 (Cavia porcellus) (UniProt O70528); conditions: Compound concentration 10.0 uM
[7] = molecular target: Activin receptor type-1B (Homo sapiens) (UniProt P36896)
[8] = molecular target: Thromboxane-A synthase (Homo sapiens) (UniProt P24557); assay: THRO SYN(HU) Eurofins SafetyScreen44 (BI); conditions: Compound concentration 10.0 uM
[9] = molecular target: Serine/threonine-protein kinase MRCK beta (Homo sapiens) (UniProt Q9Y5S2); assay: CDC42 BPB Invitrogen Lab (UK) kinase screen (BI); conditions: Compound concentration 1.0 uM
Homo sapiens = species on record: Homo sapiens; assay: PIK3CA/PIK3R3 Invitrogen Lab (UK) kinase screen (BI); conditions: Compound concentration 1.0 uM
[10] = molecular target: T1, Cyclin-G-associated kinase (Homo sapiens) (UniProt O14976)
T1 sequence (whole entry): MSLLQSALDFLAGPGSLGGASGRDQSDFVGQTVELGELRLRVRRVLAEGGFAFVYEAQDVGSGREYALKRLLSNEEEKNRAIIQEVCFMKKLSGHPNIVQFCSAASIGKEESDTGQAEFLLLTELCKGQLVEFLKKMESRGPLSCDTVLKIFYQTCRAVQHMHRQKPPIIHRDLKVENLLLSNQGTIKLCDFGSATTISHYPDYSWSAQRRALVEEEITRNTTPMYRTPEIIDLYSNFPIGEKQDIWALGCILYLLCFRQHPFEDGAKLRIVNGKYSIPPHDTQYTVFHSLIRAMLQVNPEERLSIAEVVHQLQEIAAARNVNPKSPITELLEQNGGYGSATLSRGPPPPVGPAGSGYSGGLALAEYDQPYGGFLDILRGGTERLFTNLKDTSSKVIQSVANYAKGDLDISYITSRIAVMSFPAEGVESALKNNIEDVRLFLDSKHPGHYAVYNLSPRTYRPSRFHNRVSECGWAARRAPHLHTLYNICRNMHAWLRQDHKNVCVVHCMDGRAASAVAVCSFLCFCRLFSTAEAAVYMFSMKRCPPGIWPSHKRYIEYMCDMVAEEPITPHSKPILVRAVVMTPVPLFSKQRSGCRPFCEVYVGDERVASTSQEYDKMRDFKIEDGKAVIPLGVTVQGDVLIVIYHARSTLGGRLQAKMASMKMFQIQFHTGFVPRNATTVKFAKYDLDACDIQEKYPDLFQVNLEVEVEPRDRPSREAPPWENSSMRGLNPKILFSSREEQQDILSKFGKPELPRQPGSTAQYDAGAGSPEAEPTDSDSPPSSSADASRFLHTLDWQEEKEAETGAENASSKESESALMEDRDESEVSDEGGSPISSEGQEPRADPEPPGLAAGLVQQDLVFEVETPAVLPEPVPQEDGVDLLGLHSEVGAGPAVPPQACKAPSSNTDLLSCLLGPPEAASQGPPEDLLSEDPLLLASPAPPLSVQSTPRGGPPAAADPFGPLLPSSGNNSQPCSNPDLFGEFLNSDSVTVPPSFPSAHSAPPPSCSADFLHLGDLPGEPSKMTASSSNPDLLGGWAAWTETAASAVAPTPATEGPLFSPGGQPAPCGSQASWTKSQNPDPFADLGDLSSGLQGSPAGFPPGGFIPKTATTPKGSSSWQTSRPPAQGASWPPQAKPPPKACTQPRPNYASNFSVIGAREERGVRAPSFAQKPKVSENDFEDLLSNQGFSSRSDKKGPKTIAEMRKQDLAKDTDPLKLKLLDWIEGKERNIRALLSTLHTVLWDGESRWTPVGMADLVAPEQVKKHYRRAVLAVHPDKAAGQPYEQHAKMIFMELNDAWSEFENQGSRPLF

[11] = molecular target: Serine/threonine-protein kinase Chk2 (Homo sapiens) (UniProt O96017); assay: CHEK2 Invitrogen Lab (UK) kinase screen (BI); conditions: Compound concentration 1.0 uM
[12] = molecular target: Protein kinase C gamma type (Homo sapiens) (UniProt P05129); assay: PRKCG Invitrogen Lab (UK) kinase screen (BI); conditions: Compound concentration 1.0 uM
[13] = molecular target: Cyclin-dependent kinase 19 (Homo sapiens) (UniProt Q9BWU1); conditions: Compound concentration 1.0 uM
[14] = molecular target: Serine/threonine-protein kinase 16 (Homo sapiens) (UniProt O75716); conditions: Compound concentration 1.0 uM
[15] = molecular target: RAC-gamma serine/threonine-protein kinase (Homo sapiens) (UniProt Q9Y243); conditions: Compound concentration 1.0 uM
[16] = molecular target: Protein kinase C eta type (Homo sapiens) (UniProt P24723); conditions: Compound concentration 1.0 uM
[17] = molecular target: Serine/threonine-protein kinase D3 (Homo sapiens) (UniProt O94806); conditions: Compound concentration 1.0 uM
[18] = molecular target: Mitogen-activated protein kinase 13 (Homo sapiens) (UniProt O15264); conditions: Compound concentration 1.0 uM
[19] = molecular target: Casein kinase I (Homo sapiens) (UniProt Q9HCP0+P78368+P48730+P49674+P48729); assay: CK1 DUNDEE kinase screen (BI); type: protein assay; conditions: Rattus norvegicus; Compound concentration 10.0 uM
[20] = molecular target: Sodium-dependent dopamine transporter (Homo sapiens, UniProt Q01959); conditions: Compound concentration 10.0 uM
[21] = molecular target: Glycogen synthase kinase-3 beta (Homo sapiens) (UniProt P49841); assay: GSK3B DUNDEE kinase screen (BI); conditions: Compound concentration 10.0 uM
Rattus norvegicus = species on record: Rattus norvegicus; conditions: Compound concentration 10.0 uM
[22] = molecular target: Death-associated protein kinase 1 (Homo sapiens) (UniProt P53355); conditions: Compound concentration 1.0 uM
[23] = molecular target: Dual specificity protein kinase CLK1 (Homo sapiens) (UniProt P49759); conditions: Compound concentration 1.0 uM
[24] = molecular target: PAS domain-containing serine/threonine-protein kinase (Homo sapiens) (UniProt Q96RG2); assay: PASK Invitrogen Lab (UK) kinase screen (BI); conditions: Compound concentration 1.0 uM

Sequence of Ephrin type-A receptor 2 (Homo sapiens) (P29317 whole entry): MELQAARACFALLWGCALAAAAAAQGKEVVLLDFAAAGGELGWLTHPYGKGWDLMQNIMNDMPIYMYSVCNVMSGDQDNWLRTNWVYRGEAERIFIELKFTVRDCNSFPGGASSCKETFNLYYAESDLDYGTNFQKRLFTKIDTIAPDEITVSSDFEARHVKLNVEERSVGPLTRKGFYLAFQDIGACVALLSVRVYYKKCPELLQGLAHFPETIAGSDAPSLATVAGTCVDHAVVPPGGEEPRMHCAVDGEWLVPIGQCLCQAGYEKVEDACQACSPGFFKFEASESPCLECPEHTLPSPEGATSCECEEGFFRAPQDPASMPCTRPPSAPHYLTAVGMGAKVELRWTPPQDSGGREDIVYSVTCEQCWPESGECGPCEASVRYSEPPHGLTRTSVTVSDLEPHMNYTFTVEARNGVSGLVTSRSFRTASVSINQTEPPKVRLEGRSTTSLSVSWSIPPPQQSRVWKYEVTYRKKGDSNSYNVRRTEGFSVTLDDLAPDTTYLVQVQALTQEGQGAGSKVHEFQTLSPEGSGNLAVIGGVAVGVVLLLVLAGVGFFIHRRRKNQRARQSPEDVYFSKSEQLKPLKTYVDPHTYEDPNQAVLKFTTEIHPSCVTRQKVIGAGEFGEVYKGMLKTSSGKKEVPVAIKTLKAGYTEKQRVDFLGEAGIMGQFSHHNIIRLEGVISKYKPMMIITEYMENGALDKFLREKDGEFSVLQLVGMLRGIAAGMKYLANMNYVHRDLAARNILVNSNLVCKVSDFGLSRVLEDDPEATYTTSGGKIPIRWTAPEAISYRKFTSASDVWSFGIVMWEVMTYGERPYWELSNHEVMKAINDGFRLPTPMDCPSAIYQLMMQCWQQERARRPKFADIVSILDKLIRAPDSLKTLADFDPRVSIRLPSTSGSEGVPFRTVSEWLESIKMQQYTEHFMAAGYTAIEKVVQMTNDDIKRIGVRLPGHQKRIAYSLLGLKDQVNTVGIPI
Sequence of Activin receptor type-1B (Homo sapiens) (P36896 whole entry): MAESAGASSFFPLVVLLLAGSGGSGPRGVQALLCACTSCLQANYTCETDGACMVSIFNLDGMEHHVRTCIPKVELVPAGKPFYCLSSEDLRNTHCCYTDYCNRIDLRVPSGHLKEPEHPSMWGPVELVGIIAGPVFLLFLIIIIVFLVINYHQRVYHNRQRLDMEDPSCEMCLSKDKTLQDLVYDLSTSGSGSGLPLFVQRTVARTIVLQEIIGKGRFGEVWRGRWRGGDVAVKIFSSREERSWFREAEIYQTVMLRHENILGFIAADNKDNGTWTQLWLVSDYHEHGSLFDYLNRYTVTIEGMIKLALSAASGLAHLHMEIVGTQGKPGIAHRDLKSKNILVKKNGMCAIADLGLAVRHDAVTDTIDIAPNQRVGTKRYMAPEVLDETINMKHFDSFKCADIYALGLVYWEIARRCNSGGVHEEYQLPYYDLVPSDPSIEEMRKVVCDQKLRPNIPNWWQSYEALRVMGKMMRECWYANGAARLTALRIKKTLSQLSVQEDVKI
Sequence of Death-associated protein kinase 1 (Homo sapiens) (P53355 whole entry, looked up): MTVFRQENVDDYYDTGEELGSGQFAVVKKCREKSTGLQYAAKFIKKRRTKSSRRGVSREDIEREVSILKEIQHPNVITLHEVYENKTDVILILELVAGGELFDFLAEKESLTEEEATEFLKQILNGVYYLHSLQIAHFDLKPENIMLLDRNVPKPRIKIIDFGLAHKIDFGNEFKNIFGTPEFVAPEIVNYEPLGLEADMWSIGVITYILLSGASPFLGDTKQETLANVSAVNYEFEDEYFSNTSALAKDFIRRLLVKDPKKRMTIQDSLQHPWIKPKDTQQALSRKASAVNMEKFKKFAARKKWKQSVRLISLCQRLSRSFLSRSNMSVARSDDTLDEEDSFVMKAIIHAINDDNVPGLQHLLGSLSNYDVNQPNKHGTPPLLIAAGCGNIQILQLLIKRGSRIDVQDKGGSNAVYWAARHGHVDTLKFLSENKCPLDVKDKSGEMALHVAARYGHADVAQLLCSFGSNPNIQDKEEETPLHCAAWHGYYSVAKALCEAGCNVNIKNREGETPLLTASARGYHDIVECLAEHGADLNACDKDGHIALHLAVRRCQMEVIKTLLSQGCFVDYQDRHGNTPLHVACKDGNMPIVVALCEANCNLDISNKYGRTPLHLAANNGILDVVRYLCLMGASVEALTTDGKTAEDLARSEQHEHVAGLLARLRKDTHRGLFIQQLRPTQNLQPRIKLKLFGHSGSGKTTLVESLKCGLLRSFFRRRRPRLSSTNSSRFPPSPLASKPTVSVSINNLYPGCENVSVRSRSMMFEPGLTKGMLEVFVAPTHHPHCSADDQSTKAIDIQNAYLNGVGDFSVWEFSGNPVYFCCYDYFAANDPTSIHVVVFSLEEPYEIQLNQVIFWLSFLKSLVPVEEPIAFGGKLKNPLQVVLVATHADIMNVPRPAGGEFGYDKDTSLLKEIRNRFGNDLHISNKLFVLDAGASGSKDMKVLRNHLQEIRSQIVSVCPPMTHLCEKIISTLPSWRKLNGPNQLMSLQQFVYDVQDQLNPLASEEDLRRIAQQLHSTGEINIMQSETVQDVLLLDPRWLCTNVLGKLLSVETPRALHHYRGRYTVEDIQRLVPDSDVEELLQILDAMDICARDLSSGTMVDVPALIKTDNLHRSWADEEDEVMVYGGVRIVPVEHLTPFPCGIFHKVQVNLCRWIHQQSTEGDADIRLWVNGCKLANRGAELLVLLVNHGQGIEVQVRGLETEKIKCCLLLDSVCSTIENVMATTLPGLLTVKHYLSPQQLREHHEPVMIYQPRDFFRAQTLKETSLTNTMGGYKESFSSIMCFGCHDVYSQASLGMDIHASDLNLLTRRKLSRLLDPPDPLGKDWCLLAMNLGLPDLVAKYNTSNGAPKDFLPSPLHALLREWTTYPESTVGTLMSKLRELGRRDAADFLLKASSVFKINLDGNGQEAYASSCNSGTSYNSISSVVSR
Sequence of Mitogen-activated protein kinase 14 (Homo sapiens) (Q16539 whole entry): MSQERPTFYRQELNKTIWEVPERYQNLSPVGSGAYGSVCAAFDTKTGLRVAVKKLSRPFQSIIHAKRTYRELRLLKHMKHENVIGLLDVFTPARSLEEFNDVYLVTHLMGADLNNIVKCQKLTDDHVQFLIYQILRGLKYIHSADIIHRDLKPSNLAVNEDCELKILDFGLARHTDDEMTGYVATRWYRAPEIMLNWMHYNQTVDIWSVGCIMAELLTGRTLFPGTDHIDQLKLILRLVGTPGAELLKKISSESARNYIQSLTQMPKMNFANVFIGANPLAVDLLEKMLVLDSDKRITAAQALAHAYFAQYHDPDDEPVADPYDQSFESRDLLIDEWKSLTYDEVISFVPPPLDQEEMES
Sequence of Protein kinase C eta type (Homo sapiens) (P24723 whole entry): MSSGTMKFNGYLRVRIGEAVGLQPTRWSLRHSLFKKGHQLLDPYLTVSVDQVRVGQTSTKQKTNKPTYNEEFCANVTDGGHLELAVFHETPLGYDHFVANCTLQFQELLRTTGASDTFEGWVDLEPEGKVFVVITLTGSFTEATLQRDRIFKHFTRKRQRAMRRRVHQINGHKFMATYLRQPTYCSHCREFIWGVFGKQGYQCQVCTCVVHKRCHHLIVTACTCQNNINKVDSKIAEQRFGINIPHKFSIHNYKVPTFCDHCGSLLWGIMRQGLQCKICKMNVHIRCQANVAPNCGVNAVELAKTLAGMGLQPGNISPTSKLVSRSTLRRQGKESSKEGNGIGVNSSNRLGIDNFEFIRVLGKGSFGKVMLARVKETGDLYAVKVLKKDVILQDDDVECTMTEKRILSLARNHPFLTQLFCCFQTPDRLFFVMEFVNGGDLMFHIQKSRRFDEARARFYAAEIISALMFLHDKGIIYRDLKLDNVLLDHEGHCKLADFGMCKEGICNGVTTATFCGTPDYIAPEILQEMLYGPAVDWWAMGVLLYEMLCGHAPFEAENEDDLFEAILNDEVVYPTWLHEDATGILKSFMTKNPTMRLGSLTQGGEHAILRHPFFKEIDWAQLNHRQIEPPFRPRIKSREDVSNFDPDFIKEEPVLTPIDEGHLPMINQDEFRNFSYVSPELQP
Sequence of Dual specificity protein kinase CLK1 (Homo sapiens) (P49759 whole entry, looked up, the tested form may be a part): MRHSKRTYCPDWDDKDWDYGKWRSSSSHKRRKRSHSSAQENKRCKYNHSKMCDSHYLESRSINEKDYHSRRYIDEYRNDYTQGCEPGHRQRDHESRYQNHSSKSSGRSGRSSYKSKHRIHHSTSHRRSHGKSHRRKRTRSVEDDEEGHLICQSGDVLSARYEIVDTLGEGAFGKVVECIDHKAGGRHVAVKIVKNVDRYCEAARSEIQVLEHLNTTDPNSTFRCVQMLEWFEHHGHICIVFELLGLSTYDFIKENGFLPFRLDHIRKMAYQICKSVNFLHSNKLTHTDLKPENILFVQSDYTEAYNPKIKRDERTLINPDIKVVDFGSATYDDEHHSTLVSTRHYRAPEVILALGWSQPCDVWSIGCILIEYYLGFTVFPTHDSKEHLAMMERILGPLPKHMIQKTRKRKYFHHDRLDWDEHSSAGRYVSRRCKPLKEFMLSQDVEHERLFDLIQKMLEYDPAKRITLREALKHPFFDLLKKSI
Sequence of Thromboxane-A synthase (Homo sapiens) (P24557 whole entry): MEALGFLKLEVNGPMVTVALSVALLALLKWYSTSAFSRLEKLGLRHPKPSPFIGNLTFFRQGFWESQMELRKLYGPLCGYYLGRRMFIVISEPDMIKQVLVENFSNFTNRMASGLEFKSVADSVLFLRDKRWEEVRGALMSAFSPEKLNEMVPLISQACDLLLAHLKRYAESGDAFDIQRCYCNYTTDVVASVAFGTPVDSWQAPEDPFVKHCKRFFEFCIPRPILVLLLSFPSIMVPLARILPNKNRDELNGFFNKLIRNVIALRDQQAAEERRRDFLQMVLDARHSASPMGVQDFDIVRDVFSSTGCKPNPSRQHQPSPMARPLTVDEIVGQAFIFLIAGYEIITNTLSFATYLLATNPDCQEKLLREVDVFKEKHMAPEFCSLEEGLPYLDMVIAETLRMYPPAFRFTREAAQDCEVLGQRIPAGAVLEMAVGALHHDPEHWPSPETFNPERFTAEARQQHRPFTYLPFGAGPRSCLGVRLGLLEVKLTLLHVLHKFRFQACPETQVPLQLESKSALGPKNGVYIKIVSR

Which results are given for `CCC(F)(F)c1cc(N2CCC(S(C)(=O)=O)CC2)nc2sc(C(N)=O)c(N)c12` [BI-605906]?
residual activity [1]: 98%; residual activity [2]: 84%; residual activity ([3]; Compound concentration 1.0 uM): 93%; residual activity ([3]; Compound concentration 10.0 uM): 63%; residual activity [4]: 88%; residual activity [5]: 85.3%; residual activity [6]: 98%; residual activity ([7]; Compound concentration 1.0 uM): 96%; residual activity ([7]; Compound concentration 10.0 uM): 105%; residual activity [8]: 86%; residual activity [9]: 103%; residual activity (Homo sapiens): 103%; residual activity ([10]; Compound concentration 0.001 uM): 99%; residual activity ([10]; Compound concentration 1.0 uM): 7%; residual activity ([10]; Compound concentration 20.0 uM): 6%; residual activity [11]: 79%; residual activity [12]: 102%; residual activity [13]: 87%; residual activity [14]: 91%; residual activity [15]: 91%; residual activity [16]: 100%; residual activity [17]: 91%; residual activity [18]: 94%; residual activity [19]: 68.6%; residual activity [20]: 105%; residual activity [21]: 74.4%; inhibition (Rattus norvegicus): 51.9%; residual activity [22]: 100%; residual activity [23]: 92%; residual activity [24]: 106%
